Reference: article PMC2755569 (The Pediatric Infectious Disease Journal, 2009)

Legend:
[1] = human, in vivo
[2] = 15 South African children, median dose 352 mg/m^2 equivalent to 14 mg/kg; cited from earlier work
[3] = Steady-state plasma pharmacokinetics of LPV/RTV plus EFV, protocol P1058
[4] = children dosed according to body weight-adjusted dose recommendations; cited from earlier work
[5] = range = 0.5- to 2.0-fold of target value; cited from earlier work
clinical = conditions: human, in vivo
[6] = median (range), steady state, LPV/RTV 300 mg/m^2 b.i.d. + EFV 350 mg/m^2 q.d., 15 patients

Row | SMILES | AUC lower compared with pediatric and adult patients [1] [%] | Cmin lower compared with pediatric and adult patients ([1]; 24 h) [%] | Patients with estimated Cmin <1 mg/L [2] [%] | AUC ([3]; human, plasma, oral, 350 mg/m2, AUC24, GM (90% CI), geometric mean (90% CI), EFV 350 mg/m^2 q.d. with LPV/RTV) [ng·h/mL] | concentration at 24 h ([3]; human, plasma, oral, EstC24 hours, GM (90% CI), geometric mean (90% CI), EFV 350 mg/m^2 q.d. with LPV/RTV) [ng/mL] | CL (CL/F) [3, 6] | Patients with plasma concentrations below the targeted range [4] [%] | Target GM (range) AUC24 [5] | Target GM (range) C24 hours [5] | AUC (clinical; 300 mg/m2, AUC (AUC12), GM (90% CI)) [ng·h/mL] | AUC (clinical; 300 mg/m2, AUCτ (AUC12)) [ng·h/mL] | Target GM (range) AUC12 [5] | concentration at 12 h ([3]; human, plasma, oral, Cmin (C12 h), median (range), LPV/RTV 300 mg/m^2 b.i.d. with EFV, 15 patients) [ng/mL] | Tmax ([3]; median (range), steady state, LPV/RTV 300 mg/m^2 b.i.d. + EFV 350 mg/m^2 q.d., 15 patients, plasma)
1 | O=C1Nc2ccc(Cl)cc2[C@@](C#CC2CC2)(C(F)(F)F)O1 [EFV, efavirenz] | 30 | 60 | 40 | 44100 | 800 | 8.5 (2.3–22.9) L/h | 64 | 64 (32–124) mg × h/L | 1.8 (0.9 –3.6) mg/L | – | – | – | – | –
2 | Cc1cccc(C)c1OCC(=O)N[C@@H](Cc1ccccc1)[C@@H](O)C[C@H](Cc1ccccc1)NC(=O)[C@H](C(C)C)N1CCCNC1=O [LPV, lopinavir] | – | – | – | – | – | – | – | – | – | 91300 | 100000 | 80 (40 –160) mg × h/L | – | –
3 | CC(C)c1nc(CN(C)C(=O)N[C@H](C(=O)N[C@@H](Cc2ccccc2)C[C@H](O)[C@H](Cc2ccccc2)NC(=O)OCc2cncs2)C(C)C)cs1 [RTV, ritonavir] | – | – | – | – | – | 11.8 (2.0–264.8) L/h | – | – | – | – | – | – | 300 | 3.0 (1.0–8.1) hr
